Patent US10975029B2, “Crystalline eravacycline bis-hydrochloride” (Sandoz AG, priority 2016, dated 2021)
Counter-ions that a name gives are not always drawn.

Columns and labels:
Assay type in all cases: physicochemical
[1] = Comparative Example 1: gravimetric moisture sorption/desorption experiment, 0 to 80% RH; conditions: 25° C.; for hysteresis between the sorption and the desorption curve: 0 to 80% RH; for hysteresis between the sorption and the desorption curve / mass increase during the sorption cycle from 0 to 80% RH: dihydrochloride; for mass increase during the sorption cycle from 0 to 80% RH: sorption cycle 0 to 80% RH, reference weight at 0% RH
Text: Crystalline eravacycline bis-hydrochloride of the present invention and amorphous eravacycline bis-hydrochloride were both subjected to a gravimetric moisture sorption/desorption experiment using an SPSx-1μ moisture sorption analyzer (ProUmid, Ulm). The measurement cycles were started at ambient relative humidity (RH) of 20% and the RH was first decreased in 5% steps to 5% RH, in one step to 3% RH in a further step to 0% RH. Then RH was increased from 0% to 80% and decreased from 80 to 0% RH in 5% steps. Finally, the relative humidity was increased to ambient relative humidity of 20% in 3 steps of approximately 7% steps. The time per step was set to a minimum of 2 hours and a maximum of 6 hours. If an equilibrium condition with a constant mass of 0.01% within 1 hour was reached before the maximum time for all examined samples the sequential humidity step was applied before the maximum time of 6 hours. If no equilibrium was achieved the consecutive humidity step was applied after the maximum time of 6 hours. The temperature was (25±0.1)° C.

[2] = Gravimetric moisture sorption isotherm, 0% to 95% RH, with pictures to detect visual changes (deliquescence); conditions: for relative humidity at which the solid liquefies (deliquescence): measured at 25.0±0.1° C., dihydrochloride
Description: Moisture sorption isotherms were recorded with an SPSx-1μ moisture sorption analyzer (proUmid, Ulm). The measurement cycle was started at ambient relative humidity (RH) of 25% and first decreased in 5% steps to 5% RH, in one step to 3% RH in a further step to 0% RH. Then RH was increased from 0% to 95% in 5% steps. The time per step was set to a minimum of 2 hours and a maximum of 6 hours. If an equilibrium condition with a constant mass of +0.01% within 1 hour was reached before the maximum time for all examined samples, the sequential humidity step was applied before the maximum time of 6 hours. If no equilibrium was achieved, the consecutive humidity step was applied after the maximum time of 6 hours. The temperature was 25±0.1° C. At the beginning of the GMS experiment, as well as at the end of each RH-step a picture was taken of each sample in order to detect visual changes in the samples. Pictures were taken with a 2046×2046 pixel CMOS image sensor attached to a 35 mm/F 1.4 lens, which was directly connected to the cover plate of moisture sorption analyzer.

[3] = Comparative Example 2: chemical stability under accelerated stress conditions, HPLC at 254 nm; conditions: dihydrochloride; for Area % (HPLC, 254 nm) after 40° C./75% RH for 19 days / Area % (HPLC, 254 nm) after 40° C./75% RH for 42 days: open stored in glass vials; for Area % (HPLC, 254 nm), initial sample: before stress
Text: [formula] mT=initial mass of eravacycline bis-hydrochloride tested in mg VT=consumption of volumetric solution for titration of eravacycline bis-hydrochloride in mL F=factor of the volumetric solution 36.46=molecular mass of hydrochloride in g/mol 0.1=molarity of the volumetric solution 100=conversion to % High Performance Liquid Chromatography Instrument: Agilent HP 1100 with Chemstation Column: YMC-Pack Pro C18 RS; 150*4.6 mm; 3 microm Solvent: A: 40 mmol amidosulfonic acid in water • B: 40 mmol amidosulfonic acid in water with 75% acetonitrile Gradient: […]
Injection volume: 5 microL Flow: 0.8 mL/min Oven temperature: 40° C. Wavelength: 254 nm
Crystalline eravacycline bis-hydrochloride of the present invention and amorphous eravacycline bis-hydrochloride were subjected to accelerated stress conditions of 40° C. and 75% relative humidity. The samples were open stored in glass vials and analyzed by high performance liquid chromatography at 254 nm using the method as described in the experimental section above.

[4] = listed as amorphous eravacycline 2HCl
[5] = listed as crystalline eravacycline 2HCl

hysteresis between the sorption and the desorption curve [1] | water content in the desorption curve at 40% relative humidity ([1]; 40% RH, desorption curve, FIG. 7) [%] | water content in the sorption curve at 40% relative humidity ([1]; 40% RH, sorption curve, FIG. 7) | mass increase during the sorption cycle from 0 to 80% RH [1] | mass increase during the sorption cycle from 0 to 80% RH ([1]; listed as Amorphous eravacycline bis-hydrochloride) | relative humidity at which the solid liquefies (deliquescence) [2] [%] | Area % (HPLC, 254 nm) after 40° C./75% RH for 19 days [3, 4] [Area %] | Area % (HPLC, 254 nm) after 40° C./75% RH for 42 days [3, 4] [Area %] | Area % (HPLC, 254 nm), initial sample [3, 4] [Area %] | water content during the sorption and the desorption cycle at 40% relative humidity ([1]; 40% RH, sorption and desorption cycle, FIG. 6) | water content at a relative humidity of 0% ([2]; 0% RH, gravimetric moisture sorption, 25° C.) | water content at a relative humidity of 90% ([2]; 90% RH, gravimetric moisture sorption, 25° C.) | behaviour when subjected to relative humidity of about 0 to 90% ([2]; relative humidity about 0 to 90% at 25.0±0.1° C.) | Area % (HPLC, 254 nm) after 40° C./75% RH for 19 days [3, 5] [Area %] | Area % (HPLC, 254 nm) after 40° C./75% RH for 42 days [3, 5] [Area %] | Area % (HPLC, 254 nm), initial sample [3, 5] [Area %] | Structure (SMILES)
significant hysteresis | 14.3 | about 8.9 weight % | about 26.1 weight % | about 26.1 weight % | 85 | 31.9 | 30.3 | 97.2 |  |  |  |  |  |  |  | CN(C)[C@@H]1C(O)=C(C(N)=O)C(=O)[C@@]2(O)C(O)=C3C(=O)c4c(O)c(NC(=O)CN5CCCC5)cc(F)c4C[C@H]3C[C@@H]12 [amorphous eravacycline bis-hydrochloride, (4S,4aS,5aR,12aS)-4-(Dimethylamino)-7-fluoro-3,10,12,12a-tetrahydroxy-1,11-dioxo-9-[2(-pyrrolidin-1-yl)acetamido]-1,4,4a,5,5a,6,11,12a-octahydrotetracene-2-carboxamide dihydrochloride]
no significant hysteresis |  |  |  |  | 95 |  |  |  | about 13 weight % | about 0 weight % | about 20.1% | does not liquefy | 77.1 | 73.8 | 95.8 | CN(C)[C@@H]1C(O)=C(C(N)=O)C(=O)[C@@]2(O)C(O)=C3C(=O)c4c(O)c(NC(=O)CN5CCCC5)cc(F)c4C[C@H]3C[C@@H]12 [crystalline eravacycline bis-hydrochloride] [(4S,4aS,5aR,12aS)-4-(Dimethylamino)-7-fluoro-3,10,12,12a-tetrahydroxy-1,11-dioxo-9-[2(-pyrrolidin-1-yl)acetamido]-1,4,4a,5,5a,6,11,12a-octahydrotetracene-2-carboxamide dihydrochloride]
